# Columns and labels:
# [1] = system: caspase 9; assay: Quantification of caspase 9 in adipocytes by Western blotting and densitometry; type: cell-based, human
# Description: (§1) Quantification of Apoptotic Factors (cytocrome c, caspase 3 and 9)
# (§2) Adipocytes have been collected both manually using a “Luer-lock” 10 cc. syringe following Coleman's technique, and by a liposuctor with a negative pressure adjusted to maintain −680 mmHg. After the collection, half of the sample was treated with coenzyme Q10 dissolved in Lutrol (or another amphipathic molecule) at 10 μM concentration, as reported in previous works (1, 3). The other half of collected sample was treated with Lutrol (or another amphipathic molecule) alone. Both samples were then -centrifuged. The interphase and cell pellet were collected, following Coleman's technique (6) and maintained in liquid Nitrogen.
# (§3) Preparation of protein cell lysates (6) is a modification of the -method described by Rioux (7).
# (§4) Liposucted cell suspensions were centrifuged at 800 g for 10 minutes. 1 ml of lysis buffer (0.75 M NaCl, 10 mM HEPES, 1 mM EDTA, 1% Triton-X-100) containing a protease inhibitor mixture (final concentrations 1 μg/ml leupeptin, 10 μg/ml benzamidine, 1 μg/ml chymostatin, 1 μg/ml pepstatin A and 100 μg/ml PMSF) was added and the cell pellet was sonicated two times successively (20 sec, 100 W) to obtain whole cellular lysate. The lysate was further cleared by centrifugation at 10.000 g for 30 min in mini centrifuge. After removing the fat layer and the pellet of cellular debris, the protein content was quantified with Bradford reagent by spectrophotometry. Protein lysates (30 μg/lane) were separated by SDS-PAGE (10 and 15%) and analysed by Western blot analysis with specific antibodies.
# (§5) Quantification of apoptotic factors was performed by densitometry.
# [2] = system: caspase 3; assay: Quantification of caspase 3 in adipocytes by Western blotting and densitometry; type: cell-based, human
# Description: as §1, §2, §3, §4, §5
# [3] = system: skin grafts; assay: Apoptotic cells in skin grafts (Hoechst staining / in situ TUNEL); type: cell-based, human
# Description: FIG. 4. Appearance of skin grafts untreated or treated with coenzyme Q10 and stained with in situ TUNEL.
# FIG. 5. Number of apoptotic cells in skin grafts untreated or treated with coenzyme Q10 and stained with in situ TUNEL. Values are expressed as percentage of total cells (living+dead cells).
# Isolated adipocytes in suspension were fixed with 4% paraformaldehyde for 20 min at RT (room temperature), washed 3 times with PBS and permeabilized for 5 min with 0.25% Triton X-100 in PBS solution. Washes with PBS were repeated 3 times for 5 min each time and the cells were stained with Hoechst 33258 (Sigma) nuclear dye for 30 min at 37° C. followed by washing in PBS 3 times for 5 min.
# (§6) The stained cells (10^4) were affixed to polylysine-treated glass slides by gentle cyto-centrifugation or by spreading the cellular film directly on the surface, of the glass slide and mounted. Nuclear staining was examined under Nikon fluorescence microscope (20× and 40× magnification) equipped with camera. The results are expressed as the percentage of apoptotic cells (number of apoptotic cells/100 counted cells) in 10 random fields, performed by 3 independent observers.
# [4] = system: mitochondrial Permeability Transition Pore (mPTP); settings: in response to any apoptotic stimulus; cited from earlier work
# [5] = system: cultured keratocytes; settings: excimer laser irradiation; cited from earlier work
# [6] = system: adipocytes; assay: Apoptotic events in adipocytes from explanted tissues; type: cell-based, human; settings: adipocytes maintained in the presence of coenzyme Q10
# Description: Isolation of Adipocytes from Adipose Tissue
# Modification of protocol described by Flower et al., Cytokine 21 (2003) 32-37.
# For isolation, adipocyte tissue was quickly thawed, dissected with scissors into fine fragments in-digest solution consisting of Hank's buffer, supplemented with 2 mg/ml of collagenase (Type II, Sigma) and 1.5% BSA, and incubated at 37° C. for 1 hour in shaker-heater bath. The ratio of digest solution to adipose tissue was 4:1. The tissue digest was filtered through 200 μm Nylon mesh fabric in order to remove non digested tissue fragments. The adipocyte-containing layer and free oil were separated from the resulting stromovascular cell suspension by repeated centrifugation at 250×g for 5 minutes at 4° C. All the cells retrieved were morphologically typical mature adipocytes.
# Detection of Apoptotic Adipocytes by Hoechst Staining […]
# as §6
# [7] = system: cytochrome C; assay: Dosage of cytoplasmic cytochrome C in adipocytes by Western blotting; type: cell-based, human; settings: liposucted adipocytes, Western blot (FIG. 1)
# Description: as §1, §2, §3
# Liposucted cell suspensions were centrifuged at 800 g for 10 minutes. […] After removing the fat layer and the pellet of cellular debris, the protein content was quantified with Bradford reagent by spectrophotometry. Protein lysates (30 μg/lane) were separated by SDS-PAGE (10 and 15%) and analysed by Western blot analysis with specific antibodies.
# as §5
# [8] = adipocytes collected manually (Luer-lock syringe) and by liposuctor, 10 μM in Lutrol, vs untreated samples
# [9] = adipocytes collected with Coleman's technique, added prior to centrifugation and purification
# [10] = cells from explanted tissues after ex vivo treatments, in the presence of coenzyme Q10
smiles,measurement,setting,value
"COC1=C(OC)C(=O)C(C/C=C(\C)CC/C=C(\C)CC/C=C(\C)CC/C=C(\C)CC/C=C(\C)CC/C=C(\C)CC/C=C(\C)CC/C=C(\C)CC/C=C(\C)CCC=C(C)C)=C(C)C1=O [coenzyme Q10, 2.3-dimethoxy-5-methyl-6-multiprenyl-1.4-benzoquinone]",reduction of caspase 9 activity compared to controls (FIG. 2),[1]; [8],~50%
same,caspase 9 activity evaluated by Western blotting,[1]; [9],dramatically reduced
same,reduction of caspase 9 level,[1]; [10],more than 50%
same,reduction of caspase 3 activity compared to controls (FIG. 2),[2]; [8],~50%
same,caspase 3 activity evaluated by Western blotting,[2]; [9],dramatically reduced
same,reduction of caspase 3 level,[2]; [10],more than 50%
same,number of apoptotic events,[3]; cutaneous cells maintained in the presence of coenzyme Q10,significantly reduced
same,percentage of apoptotic cells,"[3]; skin graft, glass slides of treated vs non treated cells (FIG. 4)",dramatically lower
same,cell morphology,"[3]; skin graft, treated cells, non treated cells showed nuclear condensation and fragmentation",normal morphology of a living cell
same,number of apoptotic cells,[3]; skin grafts immersed in coenzyme Q10-saline solution (FIG. 5),drastically decreased
same,disruption of mitochondrial transmembrane electrochemical gradient and opening of mPTP,[4],directly inhibits
same,apoptosis,[5],able to inhibit apoptosis
same,number of apoptotic events,[6],significantly reduced
same,translocation of cytochrome C to cytosol,[7],significantly inhibited
